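GI50 is the concentration that inhibits growth by half. At the TGI there is no net growth.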
Assays:
Assay in all cases: growth of human tumour cells (NCI), 384-well format; in the data active = GI50 below about 0.43 µM; inactive = the rest
[1] = test system: 786-0 renal
[2] = test system: A498 renal
[3] = test system: A549 NSCLC
[4] = test system: ACHN renal
[5] = test system: BT-549 breast
[6] = test system: CAKI-1 renal
[7] = test system: CCRF-CEM leukemia
[8] = test system: COLO 205 colon
[9] = test system: DU-145 prostate
[10] = test system: EKVX NSCLC
[11] = test system: HCC-2998 colon
[12] = test system: HCT-15 colon
[13] = test system: HL-60(TB) leukemia
[14] = test system: HOP-62 NSCLC
[15] = test system: HOP-92 NSCLC
[16] = test system: HS 578T breast
[17] = test system: HT29 colon
[18] = test system: IGROV1 ovarian
[19] = test system: K-562 leukemia
[20] = test system: KM12 colon
[21] = test system: LOX IMVI melanoma
[22] = test system: M14 melanoma
[23] = test system: MALME-3M melanoma
[24] = test system: MCF7 breast
[25] = test system: MDA-MB-231 breast
[26] = test system: MDA-MB-435 melanoma
[27] = test system: MDA-MB-468 breast
[28] = test system: MOLT-4 leukemia
[29] = test system: NCI-H226 lung
[30] = test system: NCI-H23 lung
[31] = test system: NCI-H322M lung
[32] = test system: NCI-H460 NSCLC
[33] = test system: NCI-H522 lung
[34] = test system: NCI/ADR-RES ovarian
[35] = test system: OVCAR-3 ovarian
[36] = test system: OVCAR-4 ovarian
[37] = test system: OVCAR-5 ovarian
[38] = test system: OVCAR-8 ovarian
[39] = test system: PC-3 prostate
[40] = test system: RPMI-8226 leukemia
[41] = test system: RXF 393 renal
[42] = test system: SF-268 CNS
[43] = test system: SF-295 CNS
[44] = test system: SF-539 CNS
[45] = test system: SK-MEL-28 melanoma
[46] = test system: SK-MEL-5 melanoma
[47] = test system: SK-OV-3 ovarian
[48] = test system: SN12C renal
[49] = test system: SNB-19 CNS
[50] = test system: SNB-75 CNS
[51] = test system: SR leukemia
[52] = test system: SW-620 colon
[53] = test system: T-47D breast
[54] = test system: TK-10 renal
[55] = test system: UACC-257 melanoma
[56] = test system: UACC-62 melanoma
[57] = test system: UO-31 renal
[58] = test system: U251 glioblastoma

C[C@@H](NC(=O)c1ccc(F)cc1)c1ccc2c(c1)CCN2C(=O)C1CCOCC1
> 100 µM: TGI [1] | TGI [2] | TGI [3] | TGI [4] | TGI [5] | TGI [6] | TGI [7] | TGI [8] | TGI [9] | TGI [10] | TGI [11] | TGI [12] | TGI [13] | TGI [14] | TGI [15] | TGI [16] | TGI [17] | TGI [18] | TGI [19] | TGI [20] | TGI [21] | TGI [22] | TGI [23] | TGI [24] | TGI [25] | TGI [26] | TGI [27] | TGI [28] | TGI [29] | TGI [30] | TGI [31] | TGI [32] | TGI [33] | TGI [34] | TGI [35] | TGI [36] | TGI [37] | TGI [38] | TGI [39] | TGI [40] | TGI [41] | TGI [42] | TGI [43] | TGI [44] | TGI [45] | TGI [46] | TGI [47] | TGI [48] | TGI [49] | TGI [50] | TGI [51] | TGI [52] | TGI [53] | TGI [54] | TGI [55] | TGI [56] | TGI [57]
inactive: GI50 [1] > 100 µM | GI50 [2] > 100 µM | GI50 [3] > 100 µM | GI50 [4] > 100 µM | GI50 [5] > 100 µM | GI50 [6] > 100 µM | GI50 [7] > 100 µM | GI50 [8] > 100 µM | GI50 [9] > 100 µM | GI50 [10] > 100 µM | GI50 [11] > 100 µM | GI50 [12] > 100 µM | GI50 [13] > 100 µM | GI50 [14] > 100 µM | GI50 [15] > 100 µM | GI50 [16] > 100 µM | GI50 [17] > 100 µM | GI50 [18] > 100 µM | GI50 [19] > 100 µM | GI50 [20] > 100 µM | GI50 [21] > 100 µM | GI50 [22] > 100 µM | GI50 [23] > 100 µM | GI50 [24] > 100 µM | GI50 [25] > 100 µM | GI50 [26] > 100 µM | GI50 [27] 34.4 µM | GI50 [28] > 100 µM | GI50 [29] > 100 µM | GI50 [30] > 100 µM | GI50 [31] > 100 µM | GI50 [32] > 100 µM | GI50 [33] > 100 µM | GI50 [34] > 100 µM | GI50 [35] > 100 µM | GI50 [36] 80.7 µM | GI50 [37] > 100 µM | GI50 [38] > 100 µM | GI50 [39] > 100 µM | GI50 [40] 91.4 µM | GI50 [41] > 100 µM | GI50 [42] > 100 µM | GI50 [43] > 100 µM | GI50 [44] > 100 µM | GI50 [45] > 100 µM | GI50 [46] > 100 µM | GI50 [47] > 100 µM | GI50 [48] > 100 µM | GI50 [49] > 100 µM | GI50 [50] > 100 µM | GI50 [51] > 100 µM | GI50 [52] > 100 µM | GI50 [53] 58.6 µM | GI50 [54] > 100 µM | GI50 [55] > 100 µM | GI50 [56] > 100 µM | GI50 [57] > 100 µM

S=C(NCc1ccc2c(c1)OCO2)N1CCN(c2ncnc3c2oc2ccccc23)CC1
3.63 µM: TGI [7]
4.8 µM: TGI [28]
> 100 µM: TGI [1] | TGI [2] | TGI [3] | TGI [4] | TGI [5] | TGI [6] | TGI [8] | TGI [9] | TGI [10] | TGI [11] | TGI [12] | TGI [14] | TGI [15] | TGI [16] | TGI [17] | TGI [19] | TGI [20] | TGI [21] | TGI [22] | TGI [23] | TGI [24] | TGI [25] | TGI [26] | TGI [29] | TGI [30] | TGI [31] | TGI [33] | TGI [35] | TGI [36] | TGI [37] | TGI [38] | TGI [39] | TGI [42] | TGI [43] | TGI [44] | TGI [45] | TGI [47] | TGI [48] | TGI [49] | TGI [50] | TGI [52] | TGI [54] | TGI [58] | TGI [55] | TGI [56]
89.1 µM: TGI [40]
3.32 µM: TGI [27]
3.36 µM: TGI [51]
8.23 µM: TGI [53]
6.54 µM: TGI [34]
9.25 µM: TGI [32]
2.69 µM: TGI [46]
inactive: GI50 [1] 80.6 µM | GI50 [2] 2.95 µM | GI50 [3] 9.14 µM | GI50 [4] > 100 µM | GI50 [5] 7.53 µM | GI50 [6] > 100 µM | GI50 [7] 0.917 µM | GI50 [8] > 100 µM | GI50 [9] > 100 µM | GI50 [10] 6.12 µM | GI50 [11] 21.7 µM | GI50 [12] 33.2 µM | GI50 [13] 3.18 µM | GI50 [14] 2.78 µM | GI50 [15] 62.7 µM | GI50 [16] 23.2 µM | GI50 [17] > 100 µM | GI50 [19] 1.62 µM | GI50 [20] > 100 µM | GI50 [21] 3.02 µM | GI50 [22] > 100 µM | GI50 [23] > 100 µM | GI50 [24] 3.01 µM | GI50 [25] 6.31 µM | GI50 [26] 72.4 µM | GI50 [27] 0.673 µM | GI50 [28] 1.48 µM | GI50 [29] 23.6 µM | GI50 [30] 1.87 µM | GI50 [31] 2.55 µM | GI50 [32] 2.94 µM | GI50 [33] 35.4 µM | GI50 [34] 1.36 µM | GI50 [35] > 100 µM | GI50 [36] 5.77 µM | GI50 [37] > 100 µM | GI50 [38] 3.04 µM | GI50 [39] 67.6 µM | GI50 [40] 1.79 µM | GI50 [42] > 100 µM | GI50 [43] > 100 µM | GI50 [44] > 100 µM | GI50 [45] > 100 µM | GI50 [46] 1.06 µM | GI50 [47] 6.63 µM | GI50 [48] > 100 µM | GI50 [49] > 100 µM | GI50 [50] > 100 µM | GI50 [51] 0.49 µM | GI50 [52] > 100 µM | GI50 [53] 0.593 µM | GI50 [54] 71.6 µM | GI50 [58] 8.72 µM | GI50 [55] 6.23 µM | GI50 [56] > 100 µM | GI50 [57] 15.9 µM
89 µM: TGI [57]
30.8 µM: TGI [13]

Source: PubChem BioAssay (NCI)
